Experimental data as given in PubChem BioAssay AID248 (DTP/NCI, 2004).
Several values for one entry are separate records, joined by “and”; a condition that tells them apart may be missing. Equal values may be shown once. Toxic doses and inconclusive results are not listed. No stated cut-off is given here; in the data, active means T/C of 150% or more; inactive means T/C below 125%.

System: L1210 leukemia ip in BDF1 mice, survival T/C
Test: NCI In Vivo Anticancer Drug Screen. Data for tumor model L1210 Leukemia (intraperitoneal) in B6D2F1 (BDF1) mice
Conditions: endpoint: mean survival time, higher = longer survival
How it was run: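 In this screen, tumor-bearing mice given compound are compared to those given vehicle, and their survival values are reported as a treated-to-control quotient.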

[1] = dose: 75.0 mg/kg/injection, schedule: Q01DX001 (ip), vehicle: saline
[2] = dose: 150.0 mg/kg/injection, schedule: Q01DX001 (ip), vehicle: saline
[3] = dose: 300.0 mg/kg/injection, schedule: Q01DX001 (ip), vehicle: saline
[4] = dose: 100.0 mg/kg/injection, schedule: Q01DX009 (ip), vehicle: saline with Tween-80
[5] = dose: 100.0 mg/kg/injection, schedule: Q01DX009 (ip), vehicle: Klucel (hydroxypropylcellulose) (HPC)
[6] = dose: 200.0 mg/kg/injection, schedule: Q01DX009 (ip), vehicle: Klucel (hydroxypropylcellulose) (HPC)
[7] = dose: 100.0 mg/kg/injection, schedule: Q04DX002 (ip), vehicle: Klucel (hydroxypropylcellulose) (HPC)
[8] = dose: 200.0 mg/kg/injection, schedule: Q04DX002 (ip), vehicle: Klucel (hydroxypropylcellulose) (HPC)
[9] = dose: 25.0 mg/kg/injection, schedule: Q04DX003 (ip), vehicle: saline with Tween-80
[10] = dose: 50.0 mg/kg/injection, schedule: Q04DX003 (ip), vehicle: saline with Tween-80

Measured: T/C

COC(CN(C)Cc1ccccc1)OC
inactive: [1] 107 % of control | [2] 104 % of control | [3] 102 % of control

CCCC(NC(=O)C(C)Br)C(=O)O (stereo unspecified)
inactive: [4] 88 % of control | dose: 200.0 mg/kg/injection, schedule: Q01DX009 (ip), vehicle: saline with Tween-80 98 % of control | dose: 400.0 mg/kg/injection, schedule: Q01DX009 (ip), vehicle: saline with Tween-80 95 % of control

O=C(CCl)NCCCCCNC(=O)CCl
inactive: [5] 104 % of control | [6] 105 % of control

CCCCCCCCCCCCNC(=S)NCCCC
inactive: dose: 50.0 mg/kg/injection, schedule: Q04DX002 (ip), vehicle: Klucel (hydroxypropylcellulose) (HPC) 91 % of control | [7] 95 % of control | [8] 98 % of control

O=[N+]([O-])c1ccc2c(N=Nc3ccc4ccccc4c3O)c(O)cc(S(=O)(=O)O)c2c1
inactive: dose: 50.0 mg/kg/injection, schedule: Q04DX003 (ip), vehicle: carboxymethylcellulose (CMC) 94 % of control | dose: 100.0 mg/kg/injection, schedule: Q04DX003 (ip), vehicle: carboxymethylcellulose (CMC) 93 % of control | dose: 200.0 mg/kg/injection, schedule: Q04DX003 (ip), vehicle: carboxymethylcellulose (CMC) 102 % of control

O=C(CC(NCc1ccccc1)C(=O)O)c1ccccc1 (stereo unspecified)
inactive: dose: 100.0 mg/kg/injection, schedule: Q01DX001 (ip), vehicle: saline 100 % of control | dose: 200.0 mg/kg/injection, schedule: Q01DX001 (ip), vehicle: saline 97 % of control | dose: 400.0 mg/kg/injection, schedule: Q01DX001 (ip), vehicle: saline 97 % of control

Nc1ccc2c(c1)C(=O)c1cc([N+](=O)[O-])ccc1-2
inactive: dose: 25.0 mg/kg/injection, schedule: Q01DX001 (ip), vehicle: Klucel (hydroxypropylcellulose) (HPC) 97 % of control | dose: 50.0 mg/kg/injection, schedule: Q01DX001 (ip), vehicle: Klucel (hydroxypropylcellulose) (HPC) 90 % of control | dose: 100.0 mg/kg/injection, schedule: Q01DX001 (ip), vehicle: Klucel (hydroxypropylcellulose) (HPC) 94 % of control

CCCCCCCCCC(=O)N1CCCCCC1
inactive: [7] 98 % of control | [8] 95 % of control | dose: 400.0 mg/kg/injection, schedule: Q04DX002 (ip), vehicle: Klucel (hydroxypropylcellulose) (HPC) 88 % of control

O=[N+]([O-])c1cc(CN2CCCCC2)c(O)c2cccnc12
inactive: [1] 101 % of control | [2] 106 % of control | [3] 101 % of control

O=C(O)CC1OCC=C2CN3CCC45C6=CC(=O)C(=O)C([N+](=O)[O-])=C6NC4C1C2CC35 (stereo unspecified)
inactive: dose: 25.0 mg/kg/injection, schedule: Q01DX001 (ip), vehicle: carboxymethylcellulose (CMC) 98 % of control

C[n+]1ccc2cc(N)c3c4ccccc4sc3c2c1
inactive: dose: 1.56 mg/kg/injection, schedule: Q01DX009 (ip), vehicle: saline with Tween-80 110 % of control | dose: 3.12 mg/kg/injection, schedule: Q01DX009 (ip), vehicle: saline with Tween-80 100 % of control | dose: 6.25 mg/kg/injection, schedule: Q01DX009 (ip), vehicle: saline with Tween-80 105 % of control | dose: 12.5 mg/kg/injection, schedule: Q04DX003 (ip), vehicle: saline with Tween-80 105 % of control | [9] 105 % of control | [10] 115 % of control

O=C(N/N=C/c1ccccc1Cl)C(O)C(O)C(O)C(O)CO (stereo unspecified)
inactive: dose: 100.0 mg/kg/injection, schedule: Q04DX002 (ip), vehicle: saline with Tween-80 112 % of control | dose: 200.0 mg/kg/injection, schedule: Q04DX002 (ip), vehicle: saline with Tween-80 94 % of control | dose: 400.0 mg/kg/injection, schedule: Q04DX002 (ip), vehicle: saline with Tween-80 94 % of control

CCCC(=O)OCC1CC2C=CC1C2 (stereo unspecified)
inactive: dose: 222.0 mg/kg/injection, schedule: Q01DX Z (ip), vehicle: saline 100 % of control | dose: 333.0 mg/kg/injection, schedule: Q01DX Z (ip), vehicle: saline 102 % of control | dose: 500.0 mg/kg/injection, schedule: Q01DX Z (ip), vehicle: saline 112 % of control

CN(CC#N)/N=N/c1nc[nH]c1C(N)=O
inactive: dose: 50.0 mg/kg/injection, schedule: Q01DX Z (ip), vehicle: carboxymethylcellulose (CMC) 118 % of control | dose: 75.0 mg/kg/injection, schedule: Q01DX Z (ip), vehicle: carboxymethylcellulose (CMC) 107 % of control

Cc1ccc(C)c(NC(=O)Oc2ccc(Br)cc2Br)c1
inactive: dose: 25.0 mg/kg/injection, schedule: Q01DX009 (ip), vehicle: Klucel (hydroxypropylcellulose) (HPC) 92 % of control | dose: 50.0 mg/kg/injection, schedule: Q01DX009 (ip), vehicle: Klucel (hydroxypropylcellulose) (HPC) 94 % of control | dose: 100.0 mg/kg/injection, schedule: Q04DX003 (ip), vehicle: Klucel (hydroxypropylcellulose) (HPC) 94 % of control | [6] 93 % of control and 114 % of control | dose: 200.0 mg/kg/injection, schedule: Q04DX003 (ip), vehicle: Klucel (hydroxypropylcellulose) (HPC) 87 % of control | dose: 400.0 mg/kg/injection, schedule: Q04DX003 (ip), vehicle: Klucel (hydroxypropylcellulose) (HPC) 110 % of control

CSc1ccc(NC(=O)Nc2ccc(Cl)cc2Cl)cc1
inactive: [5] 93 % of control | [6] 88 % of control | dose: 400.0 mg/kg/injection, schedule: Q01DX009 (ip), vehicle: Klucel (hydroxypropylcellulose) (HPC) 88 % of control

ClCC[n+]1ccccc1
inactive: [1] 104 % of control | [2] 101 % of control

CCOC(=O)c1ccc(NC(=O)Sc2ccccc2C)cc1
inactive: dose: 100.0 mg/kg/injection, schedule: Q04DX002 (ip), vehicle: saline 120 % of control | dose: 200.0 mg/kg/injection, schedule: Q04DX002 (ip), vehicle: saline 120 % of control | dose: 400.0 mg/kg/injection, schedule: Q04DX002 (ip), vehicle: saline 87 % of control

CCCCOC(=O)C(C)OC(=O)Nc1ccccc1 (stereo unspecified)
inactive: dose: 100.0 mg/kg/injection, schedule: Q01DX009 (sc), vehicle: olive oil, sesame oil, peanut oil 95 % of control | dose: 100.0 mg/kg/injection, schedule: Q04DX003 (sc), vehicle: olive oil, sesame oil, peanut oil 100 % of control | dose: 200.0 mg/kg/injection, schedule: Q01DX009 (sc), vehicle: olive oil, sesame oil, peanut oil 92 % of control | dose: 200.0 mg/kg/injection, schedule: Q04DX003 (sc), vehicle: olive oil, sesame oil, peanut oil 105 % of control | dose: 400.0 mg/kg/injection, schedule: Q01DX009 (sc), vehicle: olive oil, sesame oil, peanut oil 92 % of control | dose: 400.0 mg/kg/injection, schedule: Q04DX003 (sc), vehicle: olive oil, sesame oil, peanut oil 115 % of control

COc1ccc([I+]c2ccccc2)cc1
inactive: dose: 6.25 mg/kg/injection, schedule: Q04DX003 (ip), vehicle: saline 98 % of control | dose: 9.0 mg/kg/injection, schedule: Q01DX009 (ip), vehicle: saline 104 % of control | dose: 12.5 mg/kg/injection, schedule: Q04DX003 (ip), vehicle: saline 101 % of control | dose: 25.0 mg/kg/injection, schedule: Q01DX001 (ip), vehicle: saline with Tween-80 102 % of control | dose: 25.0 mg/kg/injection, schedule: Q01DX009 (ip), vehicle: saline with Tween-80 102 % of control | [9] 98 % of control | dose: 25.0 mg/kg/injection, schedule: Q04DX003 (ip), vehicle: saline 109 % of control | dose: 36.0 mg/kg/injection, schedule: Q04DX003 (ip), vehicle: saline 95 % of control | dose: 50.0 mg/kg/injection, schedule: Q01DX001 (ip), vehicle: saline with Tween-80 102 % of control | dose: 50.0 mg/kg/injection, schedule: Q01DX009 (ip), vehicle: saline with Tween-80 111 % of control | [10] 93 % of control | dose: 100.0 mg/kg/injection, schedule: Q01DX001 (ip), vehicle: saline with Tween-80 98 % of control | [4] 105 % of control | dose: 100.0 mg/kg/injection, schedule: Q04DX003 (ip), vehicle: saline with Tween-80 97 % of control

CNC(=O)Oc1cccc(C(F)(F)F)c1
inactive: dose: 100.0 mg/kg/injection, schedule: Q01DX001 (ip), vehicle: carboxymethylcellulose (CMC) 90 % of control | dose: 200.0 mg/kg/injection, schedule: Q01DX001 (ip), vehicle: carboxymethylcellulose (CMC) 98 % of control | dose: 400.0 mg/kg/injection, schedule: Q01DX001 (ip), vehicle: carboxymethylcellulose (CMC) 92 % of control

COC(=O)Cc1cc(Cl)c2cc(C)ccc2n1
inactive: dose: 100.0 mg/kg/injection, schedule: Q01DX001 (ip), vehicle: other 95 % of control | dose: 200.0 mg/kg/injection, schedule: Q01DX001 (ip), vehicle: other 98 % of control | dose: 400.0 mg/kg/injection, schedule: Q01DX001 (ip), vehicle: other 96 % of control
